# Assay results as given in publication PMC3746001 (ACS chemical biology, 2013).
# Tests used:
# [1] = target: T1, human DNA polymerase eta (hpol η) (Homo sapiens, UniProt Q9Y253); assay: Fluorescence-based polymerase strand-displacement assay, hpol η; type: biochemical; settings: IC50 for inhibition of hpol η, 10 nM hpol η, 50 nM DNA, 0.1 mM dTTP; mean ± standard deviation, triplicate
# T1 sequence (Q9Y253 1-437): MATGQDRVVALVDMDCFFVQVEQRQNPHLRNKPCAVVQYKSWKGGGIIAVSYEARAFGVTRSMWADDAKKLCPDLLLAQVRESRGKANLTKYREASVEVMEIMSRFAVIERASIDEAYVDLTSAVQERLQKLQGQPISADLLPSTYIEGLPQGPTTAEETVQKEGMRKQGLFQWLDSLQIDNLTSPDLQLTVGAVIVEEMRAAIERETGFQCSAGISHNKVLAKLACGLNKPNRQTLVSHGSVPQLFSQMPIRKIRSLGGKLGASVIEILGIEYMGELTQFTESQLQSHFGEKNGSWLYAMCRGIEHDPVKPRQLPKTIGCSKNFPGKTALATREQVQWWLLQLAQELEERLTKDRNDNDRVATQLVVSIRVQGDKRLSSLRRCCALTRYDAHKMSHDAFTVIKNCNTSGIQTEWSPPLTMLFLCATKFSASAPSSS
# [2] = target: Human DNA polymerase beta (hpol β) (Homo sapiens, UniProt P06746); assay: Fluorescence-based polymerase assay, hpol β; type: biochemical
# [3] = target: T2, human Y-family DNA polymerase kappa (hpol κ) (Homo sapiens, UniProt Q9UBT6); assay: Fluorescence-based polymerase assay, hpol κ; type: biochemical
# T2 sequence (Q9UBT6 19-526): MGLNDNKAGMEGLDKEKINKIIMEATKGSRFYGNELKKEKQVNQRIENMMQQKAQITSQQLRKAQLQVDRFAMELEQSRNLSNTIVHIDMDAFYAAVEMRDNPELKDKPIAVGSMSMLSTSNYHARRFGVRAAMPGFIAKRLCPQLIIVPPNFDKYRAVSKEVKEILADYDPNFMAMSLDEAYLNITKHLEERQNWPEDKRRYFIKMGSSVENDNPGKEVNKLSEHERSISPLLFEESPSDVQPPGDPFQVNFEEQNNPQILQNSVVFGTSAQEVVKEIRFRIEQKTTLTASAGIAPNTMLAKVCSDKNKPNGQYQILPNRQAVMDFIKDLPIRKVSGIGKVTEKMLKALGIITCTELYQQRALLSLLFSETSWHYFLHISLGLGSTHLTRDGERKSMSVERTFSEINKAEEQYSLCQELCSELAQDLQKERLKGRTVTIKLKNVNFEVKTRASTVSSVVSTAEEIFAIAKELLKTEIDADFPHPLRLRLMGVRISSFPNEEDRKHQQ
# Dpo1 = target: T3, Dpo1 (Saccharolobus solfataricus, UniProt P26811); assay: Fluorescence-based polymerase assay, Dpo1; type: biochemical, S. solfataricus
# T3 sequence (P26811 1-882): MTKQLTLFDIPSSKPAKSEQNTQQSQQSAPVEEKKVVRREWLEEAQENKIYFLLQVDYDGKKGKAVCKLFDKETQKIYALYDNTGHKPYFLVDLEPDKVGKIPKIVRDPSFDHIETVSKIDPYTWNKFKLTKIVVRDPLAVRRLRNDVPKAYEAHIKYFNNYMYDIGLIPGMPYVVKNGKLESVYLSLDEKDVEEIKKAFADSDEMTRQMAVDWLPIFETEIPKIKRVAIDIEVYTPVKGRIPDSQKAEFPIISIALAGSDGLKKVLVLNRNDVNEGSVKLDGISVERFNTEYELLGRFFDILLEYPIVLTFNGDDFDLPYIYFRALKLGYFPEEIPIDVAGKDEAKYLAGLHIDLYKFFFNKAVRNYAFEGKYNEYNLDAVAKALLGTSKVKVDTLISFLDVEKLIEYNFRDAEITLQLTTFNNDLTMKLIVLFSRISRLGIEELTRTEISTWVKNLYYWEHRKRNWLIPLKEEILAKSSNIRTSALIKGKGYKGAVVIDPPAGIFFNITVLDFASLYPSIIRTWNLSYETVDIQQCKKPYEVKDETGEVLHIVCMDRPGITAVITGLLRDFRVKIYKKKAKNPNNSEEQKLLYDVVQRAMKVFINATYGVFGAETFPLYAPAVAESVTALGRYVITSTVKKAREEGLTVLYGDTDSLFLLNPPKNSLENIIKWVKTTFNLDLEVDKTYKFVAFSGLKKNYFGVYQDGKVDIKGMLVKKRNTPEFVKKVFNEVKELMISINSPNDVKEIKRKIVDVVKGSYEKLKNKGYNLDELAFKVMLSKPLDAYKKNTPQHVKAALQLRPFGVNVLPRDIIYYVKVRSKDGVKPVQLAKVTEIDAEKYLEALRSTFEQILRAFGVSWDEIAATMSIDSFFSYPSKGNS
structure (smiles),measurement,setting,value
"O=C1NC(=S)NC(=O)C1=Cc1cn(C(=O)c2ccccc2Br)c2ccc(Cl)cc12 [ITBA-12, 5-((1-(2-bromobenzoyl)-5-chloro-1H-indol-3-yl)methylene)-2-thioxodihydropyrimidine-4,6(1H,5H)-dione]",IC50,[1],29.8 ± 2.7 µM
same,IC50,[2],41 ± 24 µM
same,Fold difference in IC50 between hpol η and hpol β,[2]; hpol β versus hpol η,~ 1.4 fold
same,IC50,[3],59 ± 11 µM
same,IC50 for hpol κ relative to hpol η,[3]; hpol κ versus hpol η,twice as high
same,IC50,Dpo1,~80 µM
